Measured values published in patent US20250099485A1, “COMPOSITIONS FOR PROMOTING HAIR GROWTH” (ESTETRA SRL, priority 2021, published 2025).

Key:
Type in all cases: cell-based
[1] = test system: Normal Human Dermal Fibroblasts (NHDFs); assay: Colonization of acellular area (IBIDI gap closure), fibroblasts; conditions: for NHDF Migration (+MMC) (colonization of acellular area vs ethanol control): presence of mitomycin C, 6 h and 24 h contact, cell gives time of significant effect
Description: The study consists in an in vitro assay aiming to evaluate the properties of E4 and E2 at 4 concentrations each on keratinocytes and fibroblasts. In this assay, the measurement of the colonization of a standard acellular surface generated from a confluent monolayer of cells using a dedicated culture device (IBIDI chamber) is performed. The assay is performed in absence and in presence of a proliferation inhibitor to focus on cell proliferation and migration or on migration only, respectively.
Normal Human foreskin-derived Dermal Fibroblast (NHDFs, ATCC) cells were grown in phenol-free Dulbecco's Modified Eagle Medium (DMEM, ThermoFisher Scientific) supplemented with 10% of Foetal Bovine Serum (FBS, ThermoFisher Scientific), L-glutamine and antibiotics. The cells were maintained in a humidified incubator at 37° C. with a 5% CO2 atmosphere.
Cells were plated in 2-well silicone inserts with a defined cell free gap (IBIDI chambers; IBIDI GmbH, 80209) that was previously inserted on 12-well culture plates. This culture device allows to create a standardized 500 μm±100 μm cell free gap for monitoring cell colonization. 24 h after seeding, when the culture reached high confluency, cells in the insert were treated, or not, with mitomycin C (MMC) at 10 μg/ml during 2 h. After these 2 hours, the insert was removed, and cells were treated with E2 or E4 in presence or not of MMC for additional 2 h. Then, if appropriate, the culture medium was removed and cells were treated with E2 or E4 for 22 h, in absence of MMC.
For the assay, keratinocytes were plated in Epilife medium without HKGS and all the treatments were performed in this medium. Fibroblasts were plated in DMEM medium containing only 2.5% of FBS and the treatments were performed in absence of FBS.
E2 and E4 were applied at 4 concentrations each (10^−7M, 10^−8M, 10^−9M, 10^−10M). In parallel, cells were treated with a positive control (HKGS 1% for human keratinocytes and PDGF-BB at 10 ng/ml for human fibroblasts).
To monitor cell colonization and to evaluate the gap closure rate, pictures of the gap were taken after different times: at time 0 h, corresponding to the beginning of the treatment with E2 or E4 and to the removal of the culture insert, at time 6 h and at time 24 h (corresponding to the end of the treatments with E2 or E4). Pictures were taken with a microscope Zeiss (Axiover 25-10× objective) and with a camera Invenio2EIII (DeltaPix—Lux-Optic). The colonized areas were quantified from the pictures by the use of the WimAsis platform—WimScratch software. For each insert, 3 pictures were taken at each time. As each condition was performed in triplicates, it means a total of 9 pictures per condition and per time point of acquisition

[2] = test system: fibroblasts isolated from female C57Bl1/6 mice; assay: Fibroblast monolayer scratch assay, mouse; conditions: 10^−7 M, compared with E2
Description: Confluent wells of both primary keratinocytes and fibroblasts were subjected to a highly validated scratch wounding procedure (using a 1 mL sterile filter tip). Post-scratching, cells were rinsed with DPBS and cell-specific media containing treatments added to each well. Cells were imaged on a ptychographic live cell imaging platform (Livecyte 2TM, Phasefocus) for 24-48 hours. Automated tracking of individual unlabeled cells will be combined with 3D cell measurements to quantify a range of wound-relevant cell parameters including scratch closure rate.
Dose range finding experiments were conducted with E4 (10^−10M to 10^−6M) and E2 with and without Mitomycin C (MMC, to inhibit proliferation) using vehicle as negative controls.
The assay was performed in the phenol red-free cell culture media containing charcoal stripped fetal bovine serum, using fibroblasts isolated from female C57Bl1/6 mice and from surplus abdominal skin donated by three female donors.

[3] = test system: mouse BMDM (bone marrow derived monocytes); assay: Immune cell polarization (qPCR NOS2/ARG1), mouse BMDM; conditions: activated mouse bone marrow derived monocytes, qPCR marker
Description: Immune cell polarization was evaluated in vitro using markers for M1/TH-1 (NOS2) and M2/TH-2 (ARG1) phenotype with human monocytes and mouse monocytes (BMDM bone marrow derived monocytes).
An experiment was conducted to evaluate the anti-inflammatory effects of E4 or vehicle (negative control). qPCR methodology was used to assess the effects of E2 and E4 on immune cell polarization using well validated marker of pro-inflammatory (NOS2 for MI/TH-1 phenotype) and anti-inflammatory (ARG1 for ME/TH-2 phenotype) activity.

[4] = test system: human hair follicles (HF); assay: Hair follicle organ culture: microscopic hair cycle staging; conditions: vs vehicle
Description: 12-44 full-length frontotemporal hair follicles (HF) were obtained from four human female donors >50 years old. Donors were caucasian female subjects […], respectively (Donor 1: 12 temporal anagen HFs; Donor 2: 29; Donor 3: 44; Donor 4: 32). After microdissection from skin as described (Edelkamp et al., Methods Mol Biol, 2020, 2154:105-119; and Langan et al., Exp Dermatol, 2015, December; 24(12):903-1), HFs were placed in adequate culture medium and allowed a 24 h rest period to allow them to recover from the trauma of microdissection. Test substance (either vehicle (0.3% EtOH) or E4 at concentrations of 30 μM, 3 μM or 300 nM) was added to the medium at the end of the 24 h. Total culturing time was 5-7 days depending on the studied parameters and the experimental question. The experimental design for the hair follicle organ culture experiment is depicted in FIG. 12. Longer term culture experiments may be used to analyze the capacity to delay the onset of catagen.
Hair cycle staging and calculation of hair cycle score is indicative of hair cycle progression and anagen-catagen transition (Langan et al., Exp Dermatol, 2015). Hair cycle staging and hair cycle score was performed at the end of the culture. The hair cycle stage of each HF was determined according to several established macroscopic and microscopic parameters (Langan et al Exp Dermatol, 2015). For macroscopic hair cycle stage, bright field images of the living HFs were taken with a digital microscope (Keyence VHX 900). Microscopic hair cycle staging was determined using Ki 67/TUNEL immunohistology and Masson Fontana histochemistry. Hair cycle staging was analyzed by calculating the percentage of HFs in each hair cycle stage. Hair cycle score was determined by giving an arbitrary score to each hair cycle stage as following: anagen: 100, early catagen: 200, mid catagen: 300, late catagen: 400, dystrophic 500, with a higher score being indicative of a higher number of HFs in catagen.

C[C@]12CC[C@@H]3c4ccc(O)cc4CC[C@H]3[C@@H]1[C@@H](O)[C@@H](O)[C@@H]2O [E4, 1,3,5 (10)-estratrien-3,15alpha,16alpha,17beta-tetrol]
NHDF Migration (+MMC) (colonization of acellular area vs ethanol control) ([1]; 10^−7M): significantly increase the colonization of the acellular area | NHDF Migration (+MMC) (colonization of acellular area vs ethanol control) ([1]; 10^−8M): significantly increase the colonization of the acellular area | NHDF colonization of the cell-free area ([1]; absence of MMC, all four concentrations): not able to significantly increase | in vitro wound closure, mouse fibroblasts scratch assay [2]: promotes in vitro wound closure to a similar extent as E2 | immune cell polarization, mouse BMDM [3]: switch from subtype M1 (pro-inflammatory) to subtype M2 (healing) | prolonged anagen (microscopic hair cycle staging) ([4]; 300 nM): tendentially | prolonged anagen (microscopic hair cycle staging) ([4]; 3 μM): significantly | prolonged anagen (microscopic hair cycle staging) ([4]; 30 μM): tendentially
